Measured values from US20110281810A1, “Composition” (Cognis IP Management GmbH, priority 2010, published 2011).
Values after ≈ are worked out from the molar mass of the structure shown.

Key:
physchem [1] = experiment: physchem
Protocol: The stated products and synergistic mixtures were investigated for their usefulness in pharmaceutical formulations and in particular for solubility improvement for sparingly soluble model substances.
The effect of the stated new solubilizers on the boost to solubility of these active ingredients was investigated and was compared with solubilizers already established for pharmaceutical applications. For this purpose, solution isotherms were recorded, and can be used to ascertain the extent of dissolution mediated by the various solubilizers. The optimum is a sharp increase in drug concentration through the use of small amounts of solubilizer, since increasing concentration may also be accompanied by an increase in the unwanted effects.
The solubilizers investigated were compared with solubilizers already established for pharmaceutical formulations, such as TEGO® SMO 80 V (Polysorbat 80) from Evonik, Solutol® HS 15 from BASF, Ludwigshafen, and Eumulgin® RO 35 PH and Speziol® TPGS Pharma (Tocophersolan) from Cognis, Monheim.

physchem [2] = conditions: aqueous with cosolvent or surfactant or cyclodextrin
Source text: (§1) Additionally investigated was the solubilization of a homologous series of cinnamic acid derivatives.

[3] = Solubilization of a homologous series of cinnamic acid derivatives in water by solubilizers; conditions: aqueous with cosolvent or surfactant or cyclodextrin
Source text: as §1

[4] = aqueous with cosolvent or surfactant or cyclodextrin, Solubility with Eumulgin RO35
[5] = aqueous with cosolvent or surfactant or cyclodextrin, Solubility with TEGO SMO 80V
[6] = water, Solubility, no solubilizer
[7] = Solubility (MW) with Eumulgin HPS
[8] = Solubility (MW) with Eumulgin L
[9] = Solubility (MW) with Eumulgin O10
[10] = Solubility (MW) with Eumulgin RO35
[11] = Solubility (MW) with Speziol TPGS
[12] = Solubility (MW) with Tego SMO 80V
[13] = Eumulgin ES solution in water, Solubility (MW) with Eumulgin ES, water, solubilizer Eumulgin ES
[14] = Eumulgin HPS solution in water, Solubility (MW) with Eumulgin HPS, water, solubilizer Eumulgin HPS
[15] = Eumulgin L solution in water, Solubility (MW) with Eumulgin L, water, solubilizer Eumulgin L
[16] = Eumulgin O10 solution in water, Solubility (MW) with Eumulgin O10, water, solubilizer Eumulgin O10
[17] = Eumulgin RO35 solution in water, Solubility (MW) with Eumulgin RO35, water, solubilizer Eumulgin RO35
[18] = Speziol TPGS solution in water, Solubility (MW) with Speziol TPGS, water, solubilizer Speziol TPGS
[19] = Tego SMO 80V solution in water, Solubility (MW) with Tego SMO 80V, water, solubilizer Tego SMO 80V

CC[C@H]1OC(=O)[C@H](C)[C@@H](O[C@H]2C[C@@](C)(OC)[C@@H](O)[C@H](C)O2)[C@H](C)[C@@H](O[C@@H]2O[C@H](C)C[C@H](N(C)C)[C@H]2O)[C@](C)(O)C[C@@H](C)C(=O)[C@H](C)[C@@H](O)[C@]1(C)O [Erythromycin]
solubility (physchem [1]; aqueous with cosolvent or surfactant or cyclodextrin, Solubility with Eumulgin HPS): 1230 µg/mL | solubility (physchem [1]; aqueous with cosolvent or surfactant or cyclodextrin, Solubility with Eumulgin L): 1070 µg/mL | solubility (physchem [1]; [4]): 1660 µg/mL | solubility (physchem [1]; aqueous with cosolvent or surfactant or cyclodextrin, Solubility with Speziol TPGS): 1720 µg/mL | solubility (physchem [1]; [5]): 1700 µg/mL | solubility (physchem [1]; [6]): 459 µg/mL

CCOC(=O)C=Cc1ccccc1 [Ethyl cinnamate, ethyl cinnamate]
solubility (physchem [2]; [7]): 23600 µg/mL (≈ 134 mM) | solubility (physchem [2]; [8]): 14700 µg/mL (≈ 83.4 mM) | solubility (physchem [2]; [9]): 47000 µg/mL (≈ 267 mM) | solubility (physchem [2]; [10]): 68000 µg/mL (≈ 386 mM) | solubility (physchem [2]; [11]): 42300 µg/mL (≈ 240 mM) | solubility (physchem [2]; [12]): 96400 µg/mL (≈ 547 mM)

CC(C)COC(=O)C=Cc1ccccc1 [Isobutyl cinnamate, isobutyl cinnamate]
solubility [3, 13]: 1200 µg/mL (≈ 5.87 mM) | solubility [3, 14]: 29000 µg/mL (≈ 142 mM) | solubility [3, 15]: 41000 µg/mL (≈ 201 mM) | solubility [3, 16]: 65900 µg/mL (≈ 323 mM) | solubility [3, 17]: 54200 µg/mL (≈ 265 mM) | solubility [3, 18]: 23100 µg/mL (≈ 113 mM) | solubility [3, 19]: 110000 µg/mL (≈ 539 mM)

CC(C)OC(=O)C=Cc1ccccc1 [Isopropyl cinnamate, isopropyl cinnamate]
solubility [3, 13]: 3400 µg/mL (≈ 17.9 mM) | solubility [3, 14]: 25700 µg/mL (≈ 135 mM) | solubility [3, 15]: 15200 µg/mL (≈ 79.9 mM) | solubility [3, 16]: 32600 µg/mL (≈ 171 mM) | solubility [3, 17]: 50900 µg/mL (≈ 268 mM) | solubility [3, 18]: 21000 µg/mL (≈ 110 mM) | solubility [3, 19]: 52500 µg/mL (≈ 276 mM)

CCC(C)n1ncn(-c2ccc(N3CCN(c4ccc(OCC5COC(Cn6cncn6)(c6ccc(Cl)cc6Cl)O5)cc4)CC3)cc2)c1=O (centres unmarked) [Itraconazole]
Solubility with Eumulgin ES (physchem [1]): 9 µg/mL | Solubility with Eumulgin HPS (physchem [1]): 0.008 mg/m1 | Solubility with Eumulgin L (physchem [1]): 7 µg/mL | Solubility with Speziol TPGS (physchem [1]): 8 µg/mL | solubility (physchem [1]; [4]): 11 µg/mL | solubility (physchem [1]; [5]): 15 µg/mL | solubility (physchem [1]; [6]): 1 µg/mL

COC(=O)C=Cc1ccccc1 [Methyl cinnamate, methyl cinnamate]
solubility [3, 13]: 3000 µg/mL (≈ 18.5 mM) | solubility [3, 14]: 11400 µg/mL (≈ 70.3 mM) | solubility [3, 15]: 9800 µg/mL (≈ 60.4 mM) | solubility [3, 16]: 9100 µg/mL (≈ 56.1 mM) | solubility [3, 17]: 21500 µg/mL (≈ 133 mM) | solubility [3, 18]: 7900 µg/mL (≈ 48.7 mM) | solubility [3, 19]: 9600 µg/mL (≈ 59.2 mM)

O=C(C=Cc1ccccc1)OCCc1ccccc1 [Phenethyl cinnamate, phenethyl cinnamate]
solubility (physchem [2]; Solubility (MW) with Eumulgin ES): 3200 µg/mL (≈ 12.7 mM) | solubility (physchem [2]; [7]): 2700 µg/mL (≈ 10.7 mM) | solubility (physchem [2]; [8]): 2500 µg/mL (≈ 9.91 mM) | solubility (physchem [2]; [9]): 3700 µg/mL (≈ 14.7 mM) | solubility (physchem [2]; [10]): 4900 µg/mL (≈ 19.4 mM) | solubility (physchem [2]; [11]): 2600 µg/mL (≈ 10.3 mM) | solubility (physchem [2]; [12]): 2500 µg/mL (≈ 9.91 mM)
